# Measurements as given in patent US20170197979A1, “BENZOTHIADIAZOLAMINES” (BAYER PHARMA AKTIENGESELLSCHAFT, priority 2014, published 2017).
# Read-outs that look alike come from different tables or passages of the source.
# Molecular target: T1, human full-length MKNK1 (Homo sapiens, UniProt Q9BUB5, T385D)
# T1 construct: GST (N); purchased Carna Biosciences 02-145; host or cells: insect cells (baculovirus expression system)
# Test: MKNK1 kinase high ATP assay (TR-FRET)
# Assay type: biochemical
# [1] = TR-FRET, high ATP (2 mM final), 15 min preincubation with enzyme, GST-MKNK1 (T344D), read-out: MKNK1 IC50
# T1 sequence (Q9BUB5 1-424 isoform Q9BUB5-2 T344D): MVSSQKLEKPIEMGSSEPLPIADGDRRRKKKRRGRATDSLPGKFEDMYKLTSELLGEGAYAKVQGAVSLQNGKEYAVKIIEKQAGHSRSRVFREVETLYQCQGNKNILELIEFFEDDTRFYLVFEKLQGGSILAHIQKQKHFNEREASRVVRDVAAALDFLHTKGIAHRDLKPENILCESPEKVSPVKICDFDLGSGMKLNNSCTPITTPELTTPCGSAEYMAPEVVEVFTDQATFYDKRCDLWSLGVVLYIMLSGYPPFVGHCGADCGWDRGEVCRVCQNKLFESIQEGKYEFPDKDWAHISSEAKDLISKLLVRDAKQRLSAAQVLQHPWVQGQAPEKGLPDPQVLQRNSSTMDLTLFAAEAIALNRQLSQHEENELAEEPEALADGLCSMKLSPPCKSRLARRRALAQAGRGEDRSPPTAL
SMILES,IC50 [1] [nM],IC50 [nM]
"CN(CC(F)F)C(=O)[C@H]1CCc2c(sc3ncnc(Nc4ccc5nnsc5c4)c23)C1 [Example 26, (7S)-4-(1,2,3-Benzothiadiazol-6-ylamino)-N-(2,2-difluoroethyl)-N-methyl-5,6,7,8-tetrahydro[1]benzothieno[2,3-d]pyrimidine-7-carboxamide]",11,–
"O=C1CCN(C(=O)[C@H]2CCc3c(sc4ncnc(Nc5ccc6nnsc6c5)c34)C2)CC1 [Example 16, 1-{[(7S)-4-(1,2,3-Benzothiadiazol-6-ylamino)-5,6,7,8-tetrahydro[1]benzothieno[2,3-d]pyrimidin-7-yl]carbonyl}piperidin-4-one]",–,15
"COc1cc2nnsc2cc1Nc1ncnc2sc3c(c12)CC[C@H](C(=O)N1C[C@@H]2C[C@H]1CN2C)C3 [Example 53, {(7S)-4-[(5-Methoxy-1,2,3-benzothiadiazol-6-yl)amino]-5,6,7,8-tetrahydro[1]benzothieno[2,3-d]pyrimidin-7-yl}[(1S,4S)-5-methyl-2,5-diazabicyclo[2.2.1]hept-2-yl]methanone]",3.8,–
"CCN(CCO)C(=O)[C@H]1CCc2c(sc3ncnc(Nc4cc5snnc5cc4OC)c23)C1 [Example 38, (7S)—N-Ethyl-N-(2-hydroxyethyl)-4-[(5-methoxy-1,2,3-benzothiadiazol-6-yl)amino]-5,6,7,8-tetrahydro[1]benzothieno[2,3-d]pyrimidine-7-carboxamide]",1.1,–
